For this experiment, the target named is T1, full-length human PRMT3 isoform 1 (GST-tagged) (Homo sapiens, UniProt O60678).
T1 construct: GST-tagged PRMT3; made in house; host or cells: E. coli BL21(DE3) Gold
The experiment in a line: PRMT3 Biochemical Assay (3H-SAM Flashplate, peptide substrate). The note with it: single experiment or average of multiple experiments. From the text:
General Materials. S-adenosylmethionine (SAM), S-adenosylhomocysteine (SAH), bicine, Tween20, dimethylsulfoxide (DMSO), bovine skin gelatin (BSG),), isopropyl-β-D-thiogalactopyranoside (IPTG), and Tris(2-carboxyethyl)phosphine hydrochloride solution (TCEP) were purchased from Sigma-Aldrich at the highest level of purity possible. ^3H-SAM was purchase from American Radiolabeled Chemicals with a specific activity of 80 Ci/mmol. 384-well streptavidin Flashplates were purchased from PerkinElmer.
Substrates. Peptide containing the classic RMT substrate motif was synthesized with an N-terminal linker-affinity tag motif and a C-terminal amide cap by 21st Century Biochemicals. The peptide was purified by high-performance liquid chromatography (HPLC) to greater than 95% purity and confirmed by liquid chromatography mass spectrometry (LC-MS). The sequence was Biot-Ahx-[…]-amide (SEQ ID NO.:11).
Molecular Biology: Full-length human PRMT3 (NM_005788.3) isoform 1 transcript clone was amplified from an HEK 293 cDNA library and subcloned into pGEX-KG (GE Life Sciences). The resulting construct encodes an N-terminal GST tag and a thrombin cleavage sequence ([…] […] […] […] S) (SEQ ID NO.:12) fused directly to Cys 2 of PRMT3.
Protein Expression. E. coli (BL21(DE3) Gold, Stratagene) made competent by the CaCl2) method were transformed with the PRMT3 construct and ampicillin selection. Protein over-expression was accomplished by growing the PRMT3 expressing E. coli clone and inducing expression with 0.3 mM IPTG at 16° C. The culture was grown for 12 hours, harvested by centrifugation, and stored at −80° C. for purification.
Protein Purification. […] GST-tagged PRMT3 was eluted with 50 mM Tris, 2 mM glutathione, pH 7.1 and 50 mM Tris, 20 mM glutathione, pH 7.1. Pooled fractions were dialysed in 20 mM Tris, 50 mM NaCl, 5% glycerol, 1 mM EDTA, 1 mM DTT, pH7.5 (Buffer B) and applied to a Q Sepharose Fast Flow column. GST-tagged PRMT3 was eluted by 500 mM NaCl in buffer B. Pooled fractions were dialyzed in 25 mM phosphate buffer, 100 mM NaCl, 5% glycerol, 2 mM DTT, pH 6.8 (Buffer C) and loaded on to a ceramic hydroxyapatite column. GST-tagged PRMT3 eluted with 25-400 mM phosphate in buffer C. Protein was concentrated and buffer was exchanged to 20 mM Tris, 150 mM NaCl, 5% glycerol, 5 mM β-mercaptoethanol, pH7.8 by ultrafiltration. The purity of recovered protein was 70%.
General Procedure for PRMT3 Enzyme Assays on Peptide Substrates. The assays were all performed in a buffer consisting of 20 mM Bicine (pH=7.6), 1 mM TCEP, 0.005% BSG, and 0.002% Tween 20, prepared on the day of use. Compounds in 100% DMSO (1 ul) were spotted into a polypropylene 384-well V-bottom plates (Greiner) using a Platemate Plus outfitted with a 384-channel head (Thermo Scientific). DMSO (1 ul) was added to Columns 11, 12, 23, 24, rows A-H for the maximum signal control and 1 ul of SAH, a known product and inhibitor of PRMT3, was added to columns 11, 12, 23, 24, rows I-P for the minimum signal control. A cocktail (40 ul) containing the PRMT3 enzyme was added by Multidrop Combi (Thermo-Fisher). The compounds were allowed to incubate with PRMT3 for 30 min at room temperature, then a cocktail (10 ul) containing SAM and peptide was added to initiate the reaction (final volume=51 ul). The final concentrations of the components were as follows: PRMT3 was 0.5 nM, ^3H-SAM was 100 nM, non-radiolabeled SAM was 1.8 uM, peptide was 330 nM, SAH in the minimum signal control wells was 1 mM, and the DMSO concentration was 2%. The assays were stopped by the addition of potassium chloride (10 ul) to a final concentration of 100 mM. 50 ul of the reaction in the 384-well polypropylene plate was then transferred to a 384-well Flashplate and the biotinylated peptides were allowed to bind to the streptavidin surface for at least 1 hour before being washed once with 0.1% Tween20 in a Biotek ELx405 plate washer. […]

T1 sequence (O60678 with tags, fused parts or gaps): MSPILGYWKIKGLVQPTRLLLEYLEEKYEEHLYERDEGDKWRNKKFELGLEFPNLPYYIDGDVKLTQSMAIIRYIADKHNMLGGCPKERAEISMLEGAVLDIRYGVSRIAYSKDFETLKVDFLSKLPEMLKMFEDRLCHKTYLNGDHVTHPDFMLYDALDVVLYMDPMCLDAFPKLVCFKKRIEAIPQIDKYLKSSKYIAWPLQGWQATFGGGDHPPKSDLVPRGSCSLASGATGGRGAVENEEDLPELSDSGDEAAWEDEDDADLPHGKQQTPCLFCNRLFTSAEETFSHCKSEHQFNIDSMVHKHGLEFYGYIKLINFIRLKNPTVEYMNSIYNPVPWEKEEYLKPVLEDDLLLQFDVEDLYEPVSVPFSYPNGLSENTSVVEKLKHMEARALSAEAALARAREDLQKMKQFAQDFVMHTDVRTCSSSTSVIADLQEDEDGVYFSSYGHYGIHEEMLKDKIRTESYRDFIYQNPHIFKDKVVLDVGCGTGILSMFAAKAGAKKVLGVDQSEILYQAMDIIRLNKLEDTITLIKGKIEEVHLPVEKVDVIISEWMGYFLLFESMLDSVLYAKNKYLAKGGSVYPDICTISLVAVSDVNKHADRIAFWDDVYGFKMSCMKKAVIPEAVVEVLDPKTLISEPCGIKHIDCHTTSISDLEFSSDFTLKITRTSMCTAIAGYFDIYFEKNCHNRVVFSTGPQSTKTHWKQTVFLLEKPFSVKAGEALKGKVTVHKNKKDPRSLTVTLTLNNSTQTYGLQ

In turn, `CNCCN(C)Cc1c[nH]nc1C#Cc1ccccc1` [Compound 3] had an IC50 of 9.4 µM.

What is called IC50 is the concentration that gives 50% inhibition. A low value points to greater potency in that assay.
